In US10125126B2, “N-cycloalkyl-N-[(heterocyclylphenyl)methylene]-(thio)carboxamide derivatives” (BAYER CROPSCIENCE AG, priority 2012, dated 2018) one finds Efficacy data, which are given here for one compound.

One assay has as its system Alternaria brassicae. The assay can be described thus: In vivo preventive test on Alternaria brassicae (leaf spot on radish). As to conditions: 500 ppm of active ingredient; radish plants; 6 days after contamination. In a few lines: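 Radish plants at cotyledon stage were sprayed with compound; controls got the acetone/tween/DMSO/water mix alone. After 24 h they were inoculated with Alternaria brassicae spores (50 000 spores per mL) and kept at 20 °C, 100% relative humidity. % efficacy versus controls was graded 6 days post-inoculation.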

For a further assay, the system named is Botrytis cinerea. As to the kind of experiment: In vivo preventive test on Botrytis cinerea (grey mould). The conditions noted are these: 500 ppm of active ingredient; gherkin plants; 4 to 5 days after contamination. An outline of the steps: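 Gherkin plants at cotyledon stage Z11 were sprayed with compound, then inoculated 24 h later with Botrytis cinerea spores (50 000 spores per mL in nutrient solution). Plants were kept at 17° C and 90% RH, and percent efficacy versus solvent-treated controls was graded 4 to 5 days after contamination.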

The test system of a further assay is Septoria tritici. The assay can be described thus: In vivo preventive test on Septoria tritici (wheat). As to conditions: 500 ppm of active ingredient; wheat plants; 24 days after contamination. In a few lines:
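Scipion wheat grown at 22° C, sprayed at 1-leaf stage (10 cm); controls received acetone/tween/DMSO/water without active. Inoculated 24 h later with S. tritici spores (500 000/mL), held 72 h at 18° C, 100% RH, then 21 days at 90% RH. % efficacy vs controls scored 24 days post-inoculation.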

`CC(C)c1ccc(-c2csc3ccccc23)cc1CN(C(=O)c1c(C(F)F)nn(C)c1F)C1CC1` [I.157, N-[5-(1-benzothiophen-3-yl)-2-isopropylbenzyl]-N-cyclopropyl-3-(difluoromethyl)-5-fluoro-1-methyl-1H-pyrazole-4-carboxamide]: the Efficacy is on record as 100% in the assay on Alternaria brassicae, 100% in the assay with Botrytis cinerea and 90% in the assay on Septoria tritici.
